# Reference: ChEMBL document CHEMBL1201862, “PubChem BioAssay data set” (2004)
#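 How tested: cells in 96-well plates exposed to compound for 48 hours at five concentrations. At the GI50, growth is halved.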 Calls of active or inactive are those of the source. No stated cut-off is given here; in the data, active = GI50 up to about 1.1 µM and inactive = higher.
# Tests used:
# Experiment in all cases: NCI tumour cell line growth inhibition, 48 h
# MCF7 = test system: MCF7
# DLD-1 = test system: DLD-1
# SNB-19 = test system: SNB-19
# SW-620 = test system: SW-620
# EKVX = test system: EKVX
# MOLT-4 = test system: MOLT-4
# HOP-92 = test system: HOP-92
# M19-MEL = test system: M19-MEL
# HCT-116 = test system: HCT-116
# T47D = test system: T47D
# M14 = test system: M14
# MDA-N = test system: MDA-N
# SR = test system: SR
# Hs-578T = test system: Hs-578T
# MDA-MB-231 = test system: MDA-MB-231
# PC-3 = test system: PC-3
# BT-549 = test system: BT-549
# MDA-MB-435 = test system: MDA-MB-435
# DU-145 = test system: DU-145
# TK-10 = test system: TK-10
SMILES,GI50 (MCF7),GI50 (DLD-1),GI50 (SNB-19),GI50 (SW-620),GI50 (EKVX),GI50 (MOLT-4),GI50 (HOP-92),GI50 (M19-MEL),GI50 (HCT-116),GI50 (T47D),GI50 (M14),GI50 (MDA-N),GI50 (SR),GI50 (Hs-578T),GI50 (MDA-MB-231),GI50 (PC-3),GI50 (BT-549),GI50 (MDA-MB-435),GI50 (DU-145),GI50 (TK-10)
Cc1c2c(cc3c1[nH]c1ccccc13)C(c1ccc(Cl)cc1)=NCC2,0.236 µM (active),0.452 µM (active),0.355 µM (active),0.356 µM (active),0.274 µM (active),0.426 µM (active),0.716 µM (active),0.726 µM (active),0.542 µM (active),,,,,,,,,,,
Nc1ccc2cc(S(=O)(=O)O)cc(O)c2c1/N=N/c1ccc(NC(=O)Nc2ccc(/N=N/c3c(N)ccc4cc(S(=O)(=O)O)cc(O)c34)c(S(=O)(=O)O)c2)cc1S(=O)(=O)O,> 100 µM (inactive),> 100 µM (inactive),,> 100 µM (inactive),> 100 µM (inactive),> 100 µM (inactive),> 54.8 µM (inactive),> 100 µM (inactive),> 100 µM (inactive),,,,,,,,,,,
O=C(CCCN1CCC(C(O)c2ccc(F)cc2)CC1)c1ccc(F)cc1 (configuration not stated),64.9 µM (inactive),51.8 µM (inactive),60.7 µM (inactive),61.8 µM (inactive),62.1 µM (inactive),54.3 µM (inactive),20.6 µM (inactive),59.6 µM (inactive),57 µM (inactive),56.1 µM (inactive),51.6 µM (inactive),61 µM (inactive),69.8 µM (inactive),46.1 µM (inactive),39.8 µM (inactive),47.1 µM (inactive),45.4 µM (inactive),57 µM (inactive),61.9 µM (inactive),41.4 µM (inactive)
N/C(=N\O)N/N=C/c1cc2c(cc1Cl)OCO2,22.3 µM (inactive),42.8 µM (inactive),> 25.8 µM (inactive),41.8 µM (inactive),60.4 µM (inactive),39 µM (inactive),28.3 µM (inactive),> 56.9 µM (inactive),51.5 µM (inactive),,,,,,,,,,,
Cn1c(=O)c2nc3sc4c(n3c2n(C)c1=O)C(=O)c1ccccc1C4=O,> 25.9 µM (inactive),> 100 µM (inactive),> 44.1 µM (inactive),> 66.5 µM (inactive),> 100 µM (inactive),13.5 µM (inactive),16.5 µM (inactive),> 86.7 µM (inactive),> 54.8 µM (inactive),0.893 µM (active),> 100 µM (inactive),> 64.3 µM (inactive),19.5 µM (inactive),23.3 µM (inactive),> 42.4 µM (inactive),> 42 µM (inactive),> 44.7 µM (inactive),> 28.4 µM (inactive),> 65 µM (inactive),> 100 µM (inactive)
COc1cc(=O)oc(/C=C/C=O)c1C,,16 µM (inactive),14.8 µM (inactive),19.4 µM (inactive),35.7 µM (inactive),27.5 µM (inactive),26.9 µM (inactive),18.1 µM (inactive),5.21 µM (inactive),,17.9 µM (inactive),,2.79 µM (inactive),,,,,,,31.2 µM (inactive)
